Assay results as given in patent publication US4499303A, “Antihyperlipidemic N-benzoylsulfamates, N-benzylsulfamates and benzylsulfonamides” (Research Corporation, priority 1983, dated 1985).
Entries after “also recorded” stand apart in the source; their conditions may differ. Read-outs that look alike come from different tables or passages of the source.

What was measured:
Assay type in all cases: in vivo
Serum Cholesterol [1] = experiment: Antihyperlipidemic effect in CF1 male mice: serum cholesterol; details: for response vs control in vivo at 20 mg/kg: Mus musculus, ip; for antihypercholesteremic activity (in words): mice, compared with others of Table I
Serum Triglycerides = experiment: Antihyperlipidemic effect in CF1 male mice: serum triglycerides; details: for response vs control in vivo at 20 mg/kg: Mus musculus, ip, 384 h; for response vs control in vivo at 20 mg/kg / Serum Triglycerides, Day 16: 20 mg/kg/day I.P., CF1 male mice, N = 6, Day 16; for antihypertriglyceridemic activity (in words): mice, compared with others of Table I
Procedure: Serum triglycerides were assayed using the commercially available Bio-Dynamics/bmc Triglyceride Kit on blood collected on the 16th day. By comparison to standards, the mg% of cholesterol and mg/dl of triglycerides were calculated. Treated values are expressed as percent of control.

serum cholesterol [2] = experiment: Hypolipidemic effect in rodents at 60 mg/kg/day: serum cholesterol
Text: Of the series of compounds tested thus far, N-(p-chlorobenzoyl)-sulfamate and (o-chlorobenzyl)-sulfonamide appear to be of the most interest. […]

triglyceride levels = experiment: Hypolipidemic effect in rodents at 60 mg/kg/day: triglycerides
Procedure: Of the series of compounds tested thus far, N-(p-chlorobenzoyl)-sulfamate and (o-chlorobenzyl)-sulfonamide appear to be of the most interest. N-(p-chlorobenzoyl)-sulfamic acid sodium salt at 20 mg/kg/day, I.P. lowered serum cholesterol levels 48% and serum triglyceride levels 45% after 16 days dosing.

[3] = test system: normal and hyperlipidemic mice; experiment: Hypolipidemic effect in normal and hyperlipidemic mice, oral and intraperitoneal; details: orally and intraperitoneally
[4] = 216 h, 20 mg/kg/day I.P., CF1 male mice, N = 6, Day 9, read-out: Serum Cholesterol, Day 9
[5] = 384 h, 20 mg/kg/day I.P., CF1 male mice, N = 6, Day 16, read-out: Serum Cholesterol, Day 16
[6] = 20 mg/kg/day, I.P., after 16 days dosing, lowering

| Compound | response vs control in vivo at 20 mg/kg (Serum Cholesterol [1]; [4]) [%] | response vs control in vivo at 20 mg/kg (Serum Cholesterol [1]; [5]) [%] | response vs control in vivo at 20 mg/kg (Serum Triglycerides) [%] | antihypertriglyceridemic activity (in words) (Serum Triglycerides) | other results |
| --- | --- | --- | --- | --- | --- |
| CCOC(=O)C(C)(C)Oc1ccc(Cl)cc1 [Clofibrate, reference compound] | 98 ± 7 | 97 ± 9 | 95 ± 7 | – | – |
| COc1ccc(C(=O)NS(=O)(=O)O)cc1 [Compound 1] | 63 ± 6 | 60 ± 7 | 65 ± 8 | less active in lowering triglyceride levels | antihypercholesteremic activity (in words) (Serum Cholesterol [1]): more active than saccharin in lowering serum cholesterol levels |
| O=C(NS(=O)(=O)[O-])c1ccc(Cl)cc1.[Na+] [Compound 2, N-(p-chlorobenzoyl)-sulfamic acid sodium salt] | 57 ± 5 | – | 55 ± 7 | less active in lowering triglyceride levels | lowered serum cholesterol levels (Serum Cholesterol [1]; [6]): 48%; response vs control in vivo at 20 mg/kg (Serum Cholesterol [1]; 384 h, read-out: Serum Cholesterol, Day 16): 52 ± 6%; antihypercholesteremic activity (in words) (Serum Cholesterol [1]): more active than saccharin in lowering serum cholesterol levels; Serum Triglycerides, Day 16 (Serum Triglycerides; listed as p--Cl, sodium salt): 55±7 % Control; lowered serum triglyceride levels (Serum Triglycerides; [6]): 45% |
| O=C(NS(=O)(=O)O)c1cccc(Cl)c1 [Compound 3] | 72 ± 5 | 64 ± 6 | 97 ± 7 | less active in lowering triglyceride levels | antihypercholesteremic activity (in words) (Serum Cholesterol [1]): more active than saccharin in lowering serum cholesterol levels |
| O=C(NS(=O)(=O)O)c1ccccc1Cl [Compound 4] | 78 ± 6 | 51 ± 5 | 86 ± 8 | less active in lowering triglyceride levels | antihypercholesteremic activity (in words) (Serum Cholesterol [1]): more active than saccharin in lowering serum cholesterol levels |
| COc1cccc(C(=O)NS(=O)(=O)O)c1 [Compound 5] | 86 ± 7 | 72 ± 5 | 80 ± 7 | – | – |
| O=C(NS(=O)(=O)O)c1ccccc1 [Compound 7] | 74 ± 6 | 57 ± 5 | 70 ± 6 | less active in lowering triglyceride levels | antihypercholesteremic activity (in words) (Serum Cholesterol [1]): more active than saccharin in lowering serum cholesterol levels; antihypercholesteremic activity (in words) (Serum Cholesterol [1]; listed as unsubstituted prototype): quite active |
| O=C(NS(=O)(=O)O)c1ccc(Br)cc1 [Compound 8] | 75 ± 4 | 73 ± 7 | 88 ± 3 | – | – |
| Cc1ccc(C(=O)NS(=O)(=O)O)cc1 [Compound 9] | 70 ± 3 | 63 ± 3 | 82 ± 4 | – | – |
| CC(=O)c1ccc(C(=O)NS(=O)(=O)O)cc1 [Compound 10] | 95 ± 3 | 72 ± 4 | 69 ± 6 | – | – |
| CC(C)c1ccc(C(=O)NS(=O)(=O)O)cc1 [Compound 11] | 90 ± 6 | 77 ± 6 | 49 ± 8 | – | Serum Triglycerides, Day 16 (Serum Triglycerides; listed as p-isopropyl derivative): 49±8 % Control |
| COc1ccc(CNS(=O)(=O)O)cc1 [Compound 12] | 88 ± 4 | 87 ± 2 | 91 ± 9 | – | – |
| O=S(=O)(O)NCc1ccccc1 [Compound 13] | 94 ± 7 | 88 ± 2 | 97 ± 8 | – | – |
| O=S(=O)(O)NCc1ccccc1Cl [Compound 14] | 84 ± 8 | 78 ± 2 | 75 ± 2 | increased antihyertriglyceridemic activity compared to N-benzoylsulfamate 4 | – |
| O=S(=O)(O)NCc1ccc(Cl)cc1 [Compound 15] | 94 ± 2 | 93 ± 4 | 79 ± 7 | – | – |
| NS(=O)(=O)Cc1ccccc1Cl [Compound 16, (o-Chlorobenzyl)sulfonamide] | 99 ± 8 | 73 ± 6 | 52 ± 6 | the most active antihypertriglyceridemics in the series | hypolipidemic agent in rodents (in words) (serum cholesterol [2]): potent hypolipidemic agent in rodents; reducing serum cholesterol levels (serum cholesterol [2]; 60/mg/kg/day): 71%; reducing triglyceride levels (triglyceride levels): 49%; hypolipidemic activity (in words) [3]: effective both in normal and hyperlipidemic mice and is active both orally an intraperitonally |
| COc1ccccc1CS(N)(=O)=O [Compound 17] | 69 ± 4 | 68 ± 7 | 58 ± 6 | – | antihypercholesteremic activity (in words) (Serum Cholesterol [1]): the most active antihypercholesteremic, being equal in activity to saccharin |
| COc1cccc(CS(N)(=O)=O)c1 [Compound 18] | 84 ± 6 | 79 ± 7 | 42 ± 4 | more active than saccharin; also recorded: the most active antihypertriglyceridemics in the series | Serum Triglycerides, Day 16 (Serum Triglycerides): 42 % Control |
| COc1ccc(CS(N)(=O)=O)cc1 [Compound 19] | 74 ± 8 | 70 ± 5 | 76 ± 7 | – | – |
| NS(=O)(=O)Cc1ccccc1 [Compound 20] | 95 ± 8 | 75 ± 5 | 42 ± 3 | more active than saccharin; also recorded: the most active antihypertriglyceridemics in the series | Serum Triglycerides, Day 16 (Serum Triglycerides): 42 % Control |
| NS(=O)(=O)Cc1cccc(Cl)c1 [Compound 21] | 92 ± 7 | 77 ± 5 | 71 ± 5 | – | – |
| NS(=O)(=O)Cc1ccc(Cl)cc1 [Compound 22] | 94 ± 7 | 78 ± 8 | 48 ± 4 | equally active with saccharin; also recorded: the most active antihypertriglyceridemics in the series | – |
| O=C1NS(=O)(=O)c2ccccc21 [Saccharin, reference compound] | 77 ± 6 | 68 ± 7 | 48 ± 6 | – | – |
